# Target: T1, human recombinant GPR65 (Homo sapiens, UniProt Q8IYL9)
# T1 construct: host or cells: 1321N1 human astrocytoma cells (1321N1-hrGPR65)
# Test: Human GPR65 cAMP HTRF antagonist assay
# Type: cell-based
# Details: 1321N1-hrGPR65 cells, assay pH 7.2, cAMP HTRF; read-out: hGPR65 IC50
# Description: The “Human GPR65 cyclic adenosine monophosphate (cAMP) Homogeneous Time Resolved Fluorescence (HTRF) antagonist assay”, or simply “cAMP assay”, as described in the accompanying examples, can be used to measure the potency of GPR65 modulators, which is expressed as the concentration of compound required to reduce the increase in cAMP concentration upon GPR65 activation by 50% (i.e. an IC50).
# Human GPR65 Cyclic Adenosine Monophosphate (cAMP) Homogeneous Time Resolved Fluorescence (HTRF) Antagonist Assay Procedure
# IC50data was obtained by the following procedure:
# 1321N1 human astrocytoma cells stably expressing human recombinant GPR65 (1321N1-hrGPR65 cells, EuroscreenFast) were cultured according to the vendor's instructions.
# Compounds were tested for their ability to antagonise GPR65, through measuring the concentration of cytoplasmic cAMP following treatment of the cells at a pH of 7.2 to activate GPR65 signalling and addition of the compound to be tested. The extent to which the expected rise in cAMP concentration upon GPR65 activation was suppressed by the added compound is indicative of its potency. The assay was carried out according to EuroscreenFast assay Methodology as follows.
# On the day of the assay, test compounds were added to 384-well, low volume, white microtiter plates by acoustic dispensing. KRH buffer (5 mM KCl, 1.25 mM MgSO4, 124 mM NaCl, 25 mM HEPES, 13.3 mM Glucose, 1.25 mM KH2PO4 and 1.45 mM CaCl2) was adjusted to pH 6.5, pH 7.6 and pH 8.4 by adding NaOH. 1321N1-hGPR65 cells were rapidly thawed and diluted in KRH, pH 7.6 prior to centrifugation at 300×g for 5 min and resuspension in assay buffer (KRH, pH 7.6, supplemented with 1 mM 3-isobutyl-1-methylxanthine (IBMX) and 200 μM ethylenediaminetetraacetic acid (EDTA)). Cells were added to assay plates at a density of 2,000 cells per well in a volume of […]. Assay plates were briefly centrifuged at 100×g and then incubated at room temperature for 30 min. Cells were stimulated by the addition of 5 μL KRH, pH 6.5, to achieve an assay pH of 7.2, while control wells received […] KRH, pH 8.4 to achieve an assay pH of 7.9. Assay plates were briefly centrifuged at 100×g and then incubated at room temperature for 30 min.
# Accumulation of cAMP was detected by cAMP HTRF kit (Cisbio). d2-labeled cAMP and cryptate-labeled anti-cAMP antibody in Lysis and Detection Buffer (Cisbio) were added to assay plates, and the plates were incubated at room temperature for 1 h. HTRF measurements were performed using a Pherastar FSX instrument. Acceptor and donor emission signals were measured at 665 nm and 620 nm, respectively, and HTRF ratios were calculated as signal665 nm/signal620 nm×104. Data were normalised to high and low control values and fitted with 4-parameter logistic regression to determine hGPR65 IC50 values for the test compounds, which are shown in Table 1.
# T1 sequence (Q8IYL9 whole entry): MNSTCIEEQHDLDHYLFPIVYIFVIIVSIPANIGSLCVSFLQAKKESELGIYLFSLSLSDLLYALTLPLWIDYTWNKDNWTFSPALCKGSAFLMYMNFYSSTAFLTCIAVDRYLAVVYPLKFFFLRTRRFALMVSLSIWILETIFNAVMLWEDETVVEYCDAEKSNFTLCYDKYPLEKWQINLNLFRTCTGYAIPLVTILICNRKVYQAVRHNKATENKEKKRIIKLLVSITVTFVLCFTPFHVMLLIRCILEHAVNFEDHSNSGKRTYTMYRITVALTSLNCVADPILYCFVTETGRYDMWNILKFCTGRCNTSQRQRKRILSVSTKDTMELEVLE
smiles,measurement,value
"O=C(Nc1cc(Cl)c(-c2ccc(OC(C(F)F)C(F)F)nc2)cc1F)N1[C@H]2CC[C@@H]1c1c[nH]c(=O)cc1C2 [Compound 13, (6S,9R)-N-(5-chloro-2-fluoro-4-(6-((1,1,3,3-tetrafluoropropan-2-yl)oxy)pyridin-3-yl)phenyl)-3-oxo-3,5,6,7,8,9-hexahydro-2H-6,9-epiminocyclohepta[c]pyridine-10-carboxamide]",IC50,< 500 nM
"O=C(Nc1cc(Cl)c(-c2ccc(OCC3CC3(F)F)nc2)cc1F)N1[C@H]2CC[C@@H]1c1ccnc(F)c1C2 (stereo partly drawn) [Compound 14, (5R,8S)-N-(5-chloro-4-(6-((2,2-difluorocyclopropyl)methoxy)pyridin-3-yl)-2-fluorophenyl)-1-fluoro-6,7,8,9-tetrahydro-5H-5,8-epiminocyclohepta[c]pyridine-10-carboxamide]",IC50,< 500 nM
"COCCOCCO[C@H]1C[C@@H](Oc2ccc(-c3cc(F)c(NC(=O)N4[C@H]5CC[C@@H]4c4c[nH]c(=O)cc4C5)cc3Cl)cn2)C1 [Compound 15, (6S,9R)-N-(5-chloro-2-fluoro-4-(6-((1s,3S)-3-(2-(2-methoxyethoxy)ethoxy)cyclobutoxy)pyridin-3-yl)phenyl)-3-oxo-3,5,6,7,8,9-hexahydro-2H-6,9-epiminocyclohepta[c]pyridine-10-carboxamide]",IC50,< 500 nM
"O=C(Nc1cc(Cl)c(-c2ccc(OCC3CCOC3)nc2)cc1F)N1[C@H]2CC[C@@H]1c1c[nH]c(=O)cc1C2 (stereo partly drawn) [Compound 16, (6S,9R)-N-(5-chloro-2-fluoro-4-(6-((tetrahydrofuran-3-yl)methoxy)pyridin-3-yl)phenyl)-3-oxo-3,5,6,7,8,9-hexahydro-2H-6,9-epiminocyclohepta[c]pyridine-10-carboxamide]",IC50,< 500 nM
"Cc1cc(NC(=O)N2[C@H]3CC[C@@H]2c2c[nH]c(=O)cc2C3)c(F)cc1-c1ccc2nsnc2c1 [Compound 17, (6S,9R)-N-(4-(benzo[c][1,2,5]thiadiazol-5-yl)-2-fluoro-5-methylphenyl)-3-oxo-3,5,6,7,8,9-hexahydro-2H-6,9-epiminocyclohepta[c]pyridine-10-carboxamide]",IC50,< 500 nM
"Cc1cc(NC(=O)N2[C@H]3CC[C@@H]2c2c[nH]c(=O)cc2C3)c(F)cc1-c1ccc(OCC(F)(F)F)nc1 [Compound 18, (6S,9R)-N-(2-fluoro-5-methyl-4-(6-(2,2,2-trifluoroethoxy)pyridin-3-yl)phenyl)-3-oxo-3,5,6,7,8,9-hexahydro-2H-6,9-epiminocyclohepta[c]pyridine-10-carboxamide]",IC50,< 500 nM
"Cc1nc2cc(-c3cc(F)c(NC(=O)N4[C@H]5CC[C@@H]4c4c[nH]c(=O)cc4C5)cc3Cl)ccc2n1C [Compound 19, (6S,9R)-N-(5-chloro-4-(1,2-dimethyl-1H-benzo[d]imidazol-5-yl)-2-fluorophenyl)-3-oxo-3,5,6,7,8,9-hexahydro-2H-6,9-epiminocyclohepta[c]pyridine-10-carboxamide]",IC50,500 to 5000 nM
"O=C(Nc1cc(Cl)c(-c2ccc(OCC3CCC3)nc2)cc1F)N1[C@H]2CC[C@@H]1c1n[nH]c(=O)cc1C2 [Compound 20, (6S,9R)-N-(5-chloro-4-(6-(cyclobutylmethoxy)pyridin-3-yl)-2-fluorophenyl)-3-oxo-3,5,6,7,8,9-hexahydro-2H-6,9-epiminocyclohepta[c]pyridazine-10-carboxamide]",IC50,< 500 nM
"O=C(Nc1ccc(-c2ccc(OCC(F)(F)F)nc2)cc1F)N1[C@H]2CC[C@@H]1c1n[nH]c(=O)cc1C2 [Compound 21, (6S,9R)-N-(2-fluoro-4-(6-(2,2,2-trifluoroethoxy)pyridin-3-yl)phenyl)-3-oxo-3,5,6,7,8,9-hexahydro-2H-6,9-epiminocyclohepta[c]pyridazine-10-carboxamide]",IC50,< 500 nM
"COCCOCCO[C@H]1C[C@H](Oc2ccc(-c3cc(F)c(NC(=O)N4[C@H]5CC[C@@H]4c4c[nH]c(=O)cc4C5)cc3Cl)cn2)C1 [Compound 22, (6S,9R)-N-(5-chloro-2-fluoro-4-(6-((1r,3R)-3-(2-(2-methoxyethoxy)ethoxy)cyclobutoxy)pyridin-3-yl)phenyl)-3-oxo-3,5,6,7,8,9-hexahydro-2H-6,9-epiminocyclohepta[c]pyridine-10-carboxamide]",IC50,< 500 nM

# Reference: patent publication US20260285863A1, “COMPOUNDS CAPABLE OF MODULATING GPR65” (Pathios Therapeutics Limited, priority 2023, published 2026)
